Molecules are shown by their SMILES.

Type in all cases: in vivo
The test system of experiment [1] is Echinochloa crus-galli (ECHCG). The experiment in a line: Biological Example 2 comparative herbicidal data, post-emergence glasshouse screen. Particulars: 312 h, read-out: Post-emergence herbicidal activities (percentage phytotoxicity) ECHCG; for pest or weed control at 15.625 g/ha: 15.625 g/ha application rate; for pest or weed control at 62.5 g/ha: 62.5 g/ha application rate. The method, boiled down: (§1)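 Plants grown 8 days in a glasshouse (24/16°C day/night, 14 h light, 65% humidity) were sprayed with compound in acetone/water (50:50) containing 0.5% Tween 20. They were kept under the same conditions and watered twice daily. Phytotoxicity was scored visually after 13 days (0 = no damage, 100 = total damage).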

Experiment [2] has as its system Alopecurus myosuroides (ALOMY). The experiment is described as above. Particulars: 312 h, read-out: Post-emergence herbicidal activities (percentage phytotoxicity) ALOMY; for pest or weed control at 15.625 g/ha: 15.625 g/ha application rate; for pest or weed control at 62.5 g/ha: 62.5 g/ha application rate. The method, boiled down: as §1
Experiment [3] deals with Setaria faberi (SETFA). The description is as above. Particulars: 312 h, read-out: Post-emergence herbicidal activities (percentage phytotoxicity) SETFA; for pest or weed control at 15.625 g/ha: 15.625 g/ha application rate; for pest or weed control at 62.5 g/ha: 62.5 g/ha application rate. The method, boiled down:
as §1

Experiment [4] has as its system Solanum nigrum (SOLNI). As to the kind of experiment: Test 1A glasshouse assay for herbicidal activity, post-emergence. Particulars: 312 h, evaluated after 13 days, read-out: percentage phytotoxicity SOLNI. The method, boiled down: (§2)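 Test plants grew from seed in standard soil under controlled glasshouse conditions (24/16 °C, 14 h light, 65% humidity) and received an aqueous acetone (50:50) spray with 0.5% Tween 20, either one day after sowing or after eight days. Damage was rated visually as percent phytotoxicity 13 days later.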

Experiment [5] deals with Ipomoea hederacea (IPOHE). Described as above. Particulars: 312 h, evaluated after 13 days, read-out: percentage phytotoxicity IPOHE. In outline:
as §2

Experiment [6] concerns Brachiaria plantaginea (BRAPL). The experiment in a line: Test 1B glasshouse assay for herbicidal activity, post-emergence. Particulars: Urochloa plantaginea; for pest or weed control at 30 g/ha: 30 g/ha application rate. In outline:
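Pots of soil were sown and held one day for pre-emergence or about 12 days for post-emergence treatment, then sprayed with an aqueous solution containing 0.2% v/v X-77 adjuvant, prepared from a 50 g/liter IF50 formulation, at rate-dependent concentration. Visual damage scoring followed at 20 or 15 DAA respectively.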

Experiment [7] concerns Solanum nigrum (SOLNI). The experiment in a line: Test 1A glasshouse assay for herbicidal activity, pre-emergence. Particulars: 312 h, evaluated after 13 days, read-out: percentage phytotoxicity SOLNI. In outline:
as §2

In experiment [8] the test system is Ipomoea hederacea (IPOHE). The description is as above. Particulars: 312 h, evaluated after 13 days, read-out: percentage phytotoxicity IPOHE. In outline:
as §2

As to `Cc1cc(C#CCl)cc(C)c1C1C(=O)C2CCC(C2)C1=O` (stereo not shown) [Compound A-6], the pest or weed control at 15.625 g/ha was 90% in experiment [1], 70% in experiment [2] and 90% in experiment [3]. Also, the pest or weed control at 62.5 g/ha in experiment [1] worked out at 100%; in experiment [2] it was 70%; in experiment [3] it was 90%; in experiment [4] (62.5 g/ha) it was 20%; in experiment [5] (62.5 g/ha), 30%. Also, the pest or weed control at 250 g/ha in experiment [4] was 20%; in experiment [5], 20%; in experiment [7], 20%; in experiment [8], 10%. In experiment [6], the pest or weed control at 30 g/ha worked out at 90%. In experiment [6] (60 g/ha application rate), this compound yielded a pest or weed control at 60 g/ha of 100%.
For the compound `Cc1cc(C#CCl)cc(C)c1C1C(=O)CC(CC2CCOCC2)CC1=O` (stereo not shown) [Compound A-8], the values for the pest or weed control at 15.625 g/ha in experiment [1], in experiment [2] and in experiment [3] were 90%, 70% and 80%, respectively. The values for the pest or weed control at 62.5 g/ha in experiment [1], in experiment [2] and in experiment [3] were 100%, 80% and 90%, respectively. Also, the pest or weed control at 250 g/ha is 80% in experiment [4], 70% in experiment [5], 70% in experiment [7] and 30% in experiment [8]. This compound also had a pest or weed control at 30 g/ha in experiment [6] of 90%.

(Values after US9615577B2, “Herbicidally active cyclic dione compounds, or derivatives therefor, substituted by a phenyl which has an alkynyl-containing substituent” (Syngenta Limited, priority 2012, dated 2017).)
